We go through 14 molecules from patent US9029384B2, “Phosphatidylinositol 3-kinase inhibitors” (Gilead Calistoga LLC, priority 2012, dated 2015).

One data set concerns the target T1, PI3Kδ (Homo sapiens, UniProt O00329).
T1 construct: made in house
Put plainly: Enzymatic activity of PI3K isoforms, TR-FRET assay (PIP3 formation). The class given is biochemical. The note with it: PI3Kδ; TR-FRET, 2×Km ATP, 10 μM PIP2; read-out: IC50. In short, it runs like this: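 Recombinant heterodimeric class I PI3K; PIP3 product measured by TR-FRET competition with labelled PIP3 for Eu-GRP-1 PH domain. Reaction 30 min at 25 °C, stopped with 10 mM EDTA.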
On the technique in general: In TR-FRET formats the signal depends on donor and acceptor labels being close together.

The subject of another data set is basophils. Briefly: Basophil activation in human whole blood (Flow2 CAST kit, CD63 positive cells). The following applies: basophils activated with anti-FcεRI mAb or fMLP, geometric mean. The class given is cell-based. Summed up:
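Human whole blood (K2-EDTA) preincubated 60 minutes at 37° C with compound serial dilutions or DMSO (0.3% final), then stimulated with anti-FcεRI mAb or fMLP and stained for CD63/CCR3. Percent CD63+ among ≥200 CCR3-high basophils by flow cytometry, normalized to stimulated vehicle as 100%. EC50 from four-parameter fits, geometric means in nM, concentrations corrected for reagent dilution.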

Data set [1] can be described thus: Hepatocyte stability, 1% final DMSO, 2 μM substrate (t1/2^a). The class given is in vitro ADME. The following applies: human, cryopreserved hepatocytes, TA with 1% final DMSO, 2 μM substrate, samples at 0, 1, 2, 4 hours; read-out: human hepatocyte t½^a. The procedure:
This assay was used to evaluate the metabolic stability of test articles (TA) following incubation in cryopreserved hepatocytes by monitoring parent drug disappearance via […]. The TA with 1% final DMSO concentration was incubated with 1 million hepatocytes/ml at 2 μM substrate in duplicate. The incubation was carried out at 37° C. with 5% CO2 and saturating humidity.

Structures are written as SMILES. A value given as a limit tells only on which side of the number the result lay.

T1 sequence (O00329 whole entry): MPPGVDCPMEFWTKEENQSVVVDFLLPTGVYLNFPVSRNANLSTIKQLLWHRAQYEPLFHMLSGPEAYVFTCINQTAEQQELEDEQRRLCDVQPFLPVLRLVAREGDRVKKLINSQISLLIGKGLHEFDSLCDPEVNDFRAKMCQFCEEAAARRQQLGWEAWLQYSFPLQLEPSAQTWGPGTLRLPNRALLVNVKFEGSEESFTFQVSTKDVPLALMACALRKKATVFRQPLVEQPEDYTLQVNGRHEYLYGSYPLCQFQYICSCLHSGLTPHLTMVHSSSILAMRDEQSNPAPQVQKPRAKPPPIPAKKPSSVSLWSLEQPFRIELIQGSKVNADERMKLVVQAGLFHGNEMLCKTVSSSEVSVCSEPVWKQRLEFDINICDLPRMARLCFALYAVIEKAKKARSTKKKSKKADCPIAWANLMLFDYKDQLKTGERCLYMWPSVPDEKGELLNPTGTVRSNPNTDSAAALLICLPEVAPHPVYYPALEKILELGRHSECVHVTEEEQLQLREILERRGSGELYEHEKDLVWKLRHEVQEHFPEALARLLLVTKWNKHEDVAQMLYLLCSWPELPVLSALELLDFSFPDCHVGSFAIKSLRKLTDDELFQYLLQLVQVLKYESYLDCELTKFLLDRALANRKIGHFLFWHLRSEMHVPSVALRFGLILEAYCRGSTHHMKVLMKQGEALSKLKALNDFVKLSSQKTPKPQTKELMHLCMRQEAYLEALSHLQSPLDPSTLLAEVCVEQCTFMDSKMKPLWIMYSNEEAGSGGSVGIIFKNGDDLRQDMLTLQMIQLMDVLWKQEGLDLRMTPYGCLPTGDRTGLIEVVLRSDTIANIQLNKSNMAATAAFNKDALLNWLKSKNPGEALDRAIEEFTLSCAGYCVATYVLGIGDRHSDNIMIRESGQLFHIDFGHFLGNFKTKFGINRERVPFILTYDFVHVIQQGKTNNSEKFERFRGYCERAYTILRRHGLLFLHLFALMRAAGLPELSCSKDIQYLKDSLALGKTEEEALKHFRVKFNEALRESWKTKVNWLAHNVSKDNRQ
T1 sequence (P27986 whole entry partner): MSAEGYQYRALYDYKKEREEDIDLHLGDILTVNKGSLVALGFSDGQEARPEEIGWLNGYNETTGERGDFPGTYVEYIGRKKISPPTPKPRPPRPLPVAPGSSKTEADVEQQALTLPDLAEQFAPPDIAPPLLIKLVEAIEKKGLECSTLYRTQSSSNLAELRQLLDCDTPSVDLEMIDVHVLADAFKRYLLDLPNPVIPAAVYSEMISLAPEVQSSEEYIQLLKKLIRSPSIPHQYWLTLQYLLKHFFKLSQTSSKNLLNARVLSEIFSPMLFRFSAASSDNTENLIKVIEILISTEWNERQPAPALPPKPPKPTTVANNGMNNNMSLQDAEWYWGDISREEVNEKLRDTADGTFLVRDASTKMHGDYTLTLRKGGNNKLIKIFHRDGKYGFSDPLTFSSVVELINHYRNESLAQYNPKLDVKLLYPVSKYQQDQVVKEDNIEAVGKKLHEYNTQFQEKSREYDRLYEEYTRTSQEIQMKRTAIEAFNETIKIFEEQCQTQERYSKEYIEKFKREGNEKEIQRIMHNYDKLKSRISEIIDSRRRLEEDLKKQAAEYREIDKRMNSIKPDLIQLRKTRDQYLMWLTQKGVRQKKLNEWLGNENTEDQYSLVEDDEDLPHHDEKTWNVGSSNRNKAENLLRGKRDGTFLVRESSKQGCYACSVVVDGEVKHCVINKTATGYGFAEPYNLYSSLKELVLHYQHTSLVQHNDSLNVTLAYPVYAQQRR

For orientation: IC50 means the concentration that inhibits the measured activity by half. One may read the EC50 as the concentration at which the effect is half-maximal. For `Cc1cccc2nc(C(C)Nc3nc(N)nc(N)c3C#N)n(-c3cc(F)cc(C#N)c3)c(=O)c12` (single isomer, unassigned) [Compound 24a], the IC50 at PI3Kδ was in the range of 1 to 10 nM. Also, the EC50 in the data set on basophils (Homo sapiens) was in the range of 1 to 10 nM. For the same molecule, the half-life at 2 μM in data set [1] is 6 to 10 h.
In the case of `Cc1ccc(F)c2nc(C(C)Nc3nc(N)nc(N)c3C#N)n(-c3cc(F)cc(F)c3)c(=O)c12` (single isomer, unassigned) [Compound 25a], the IC50 at PI3Kδ was under 1 nM. Besides, the EC50 with basophils (Homo sapiens) was under 1 nM. For the same molecule, the half-life at 2 μM in data set [1] lay in the range of 1 to 3 h.
For the molecule `Cc1ccc(F)cc1-n1c(C(C)Nc2nc(N)nc(N)c2C#N)nc2cccc(Cl)c2c1=O` (single isomer, unassigned) [Compound 201a-2], at PI3Kδ, the IC50 lay within 1 to 10 nM. The EC50 with basophils lay within 1 to 10 nM. Further, the half-life at 2 μM in data set [1] fell in the range of 6 to 10 h.
For the molecule `CCC(Nc1nc(N)nc(N)c1C#N)c1nc2cccc(Cl)c2c(=O)n1-c1cc(F)cc(C(F)F)c1` (single isomer, unassigned) [Compound 66a], on PI3Kδ, the IC50 lay in the range of 1 to 10 nM. Besides, the EC50 in the data set with basophils (Homo sapiens) is 1 to 10 nM. Also, in data set [1], the half-life at 2 μM was 3 to 6 h.
`CCC(Nc1nc(N)nc(N)c1C#N)c1nc2cccc(C(F)F)c2c(=O)n1-c1cc(F)cc(F)c1` (single isomer, unassigned) [Compound 53a]: the IC50 on PI3Kδ lay in the range of 1 to 10 nM. For the same molecule, the EC50 in the data set with basophils (Homo sapiens) lay within 10 to 50 nM. Besides, in data set [1], the half-life at 2 μM is over 10 h.
As for `CC(Nc1nc(N)nc(N)c1C#N)c1nc2cccc(Cl)c2c(=O)n1-c1cc(F)cc(Cl)c1` (single isomer, unassigned) [Compound 43a], the IC50 at PI3Kδ lay within 1 to 10 nM. In the data set on basophils (Homo sapiens), the EC50 is 1 to 10 nM. Further, in data set [1], the half-life at 2 μM was 3 to 6 h.
For `CC(Nc1nc(N)nc(N)c1C#N)c1nc2c(F)ccc(Cl)c2c(=O)n1-c1cc(F)cc(F)c1` (single isomer, unassigned) [Compound 15a], the IC50 on PI3Kδ was under 1 nM. Further, in the data set with basophils (Homo sapiens), the half-maximal effective concentration (EC50) was under 1 nM. Moreover, the half-life at 2 μM in data set [1] lay in the range of 3 to 6 h.
Take `CC(Nc1nc(N)nc(N)c1C(N)=O)c1nc2cccc(Cl)c2c(=O)n1-c1cccc(C(F)F)c1` (single isomer, unassigned) [Compound 100a]: the IC50 at PI3Kδ lay in the range of 1 to 10 nM. Further, the EC50 in the data set on basophils (Homo sapiens) lay within 1 to 10 nM. Besides, in data set [1], the half-life at 2 μM fell in the range of 1 to 3 h.
For `Cc1cccc2c(=O)n(-c3cc(F)cc(F)c3)c(C(C)Nc3nc(N)nc(N)c3C#N)nc12` (single isomer, unassigned) [Compound 75a], the IC50 at PI3Kδ lay in the range of 1 to 10 nM. In addition, in the data set with basophils (Homo sapiens), the EC50 lay within 10 to 50 nM. Moreover, the half-life at 2 μM in data set [1] is over 10 h.
With `CC(C)c1cccc(-n2c(C(C)Nc3nc(N)nc(N)c3C#N)nc3cccc(Cl)c3c2=O)c1` (single isomer, unassigned) [Compound 107a], the half-inhibitory concentration (IC50) at PI3Kδ lay within 1 to 10 nM. Besides, the concentration for a half-maximal effect (EC50) in the data set with basophils (Homo sapiens) is 1 to 10 nM. Also, in data set [1], the half-life at 2 μM was under 1 h.
With `CCC(Nc1nc(N)nc(N)c1C#N)c1nc2cccc(C)c2c(=O)n1-c1cc(F)cc(F)c1` (single isomer, unassigned) [Compound 19a], the IC50 on PI3Kδ was under 1 nM. Further, the EC50 in the data set with basophils (Homo sapiens) lay within 1 to 10 nM. The half-life at 2 μM in data set [1] is 3 to 6 h.
On the same counts, the results for `CC(Nc1nc(N)nc(N)c1C#N)c1nc2cccc(C(F)F)c2c(=O)n1-c1cc(F)cc(C(F)F)c1` (single isomer, unassigned) [Compound 99a] are 1 to 10 nM, 10 to 50 nM and 6 to 10 h.
On the same counts, the results for `CC(Nc1nc(N)nc(N)c1C#N)c1nc2cccc(Cl)c2c(=O)n1-c1cc(F)cc(C#N)c1` (single isomer, unassigned) [Compound 20a] are 1 to 10 nM, 1 to 10 nM and 6 to 10 h.
For `CC(Nc1nc(N)nc(N)c1C#N)c1nc2c(Cl)ccc(Cl)c2c(=O)n1-c1cc(F)cc(F)c1` (single isomer, unassigned) [Compound 74a], the concentration for half-maximal inhibition (IC50) at PI3Kδ lay within 1 to 10 nM. Also, the EC50 with basophils (Homo sapiens) is under 1 nM. In data set [1], the half-life at 2 μM is 3 to 6 h.
